In patent publication US20250115598A1 (Anaxis Pharma Pty Ltd, priority 2021, published 2025) one finds DC50, IC50 and Kd data, which are given here for 11 compounds.

The target in one experiment is endogenous MLKL in MDF (Mus musculus (Mouse), UniProt Q9D2Y4). Briefly: Degradation assay: endogenous MLKL in MDF (western blot). The settings on record: MDF cells, 24 h incubation with compound, MLKL adjusted for loading with GAPDH, normalized to DMSO only control, read-out: Degradation of endogenous MLKL in MDF (DC50 cell-based assay). In a few lines: (§1)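 Western blot band intensity of MLKL, adjusted to GAPDH loading and normalized to DMSO-only wells, gave percent degradation. Compound exposure lasted 24 h at final concentrations of 10–0.016 μM in 1:5 steps, in mouse dermal fibroblasts or human U937 cells.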
For orientation: In western blotting, separated proteins are transferred to a membrane and probed.

In experiment [1] the test system is Immortalised Mouse Dermal Fibroblasts (MDFs). As to the kind of experiment: Cellular assay: inhibition of TSI induced necroptosis, CellTitre-Glo viability. The settings on record: Mus musculus, Fibroblast; MDF, 3 hours TSI cocktail, Table 27; read-out: Inhibition of TSI-induced necroptosis (IC50 cell-based assay) in MDF. The gist of the method: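 Necroptosis induced for 3 h with TSI: rhTNF 100 ng/ml, Smac mimetic 500 nM, caspase inhibitor IDN-6556 10 μM. Mouse dermal fibroblasts had received compound (36 μM top, ten three-fold steps) 30 min beforehand. ATP-based viability scaled between untreated and TSI-only wells; IC50 taken as 4-parameter curve inflection.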

The next experiment has as its target endogenous MLKL in U937 (Homo sapiens (Human), UniProt Q8NB16). As to the kind of experiment: Degradation assay: endogenous MLKL in U937 (western blot). As to conditions: U937, 24 h incubation, read-out: Degradation of endogenous MLKL in U937 (DC50 cell-based assay). In a few lines: as §1
In another experiment the target is human MLKL (full length) (Homo sapiens (Human), UniProt Q8NB16). As to the kind of experiment: KINOMEscan binding assay, human MLKL (full length). The settings on record: hMLKL, Table 25; read-out: MLKL (KD). In a few lines: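 KINOMEscan competition binding using kinase-tagged T7 phage or HEK-293-produced DNA-tagged protein captured on ligand beads, with eluted protein quantified by qPCR. Compounds were run as an 11-point 3-fold series, top 30,000 nM, in 1% DMSO. Kd was fitted with the Hill equation, slope fixed at −1.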

Each structure is given as a SMILES string.

One may read the DC50 as the concentration at which degradation of the target reaches its halfway point. For orientation: IC50 means the concentration that gives 50% inhibition. One may read the Kd as a measure of binding affinity in units of concentration.

endogenous MLKL in MDF, sequence (Q9D2Y4 whole entry): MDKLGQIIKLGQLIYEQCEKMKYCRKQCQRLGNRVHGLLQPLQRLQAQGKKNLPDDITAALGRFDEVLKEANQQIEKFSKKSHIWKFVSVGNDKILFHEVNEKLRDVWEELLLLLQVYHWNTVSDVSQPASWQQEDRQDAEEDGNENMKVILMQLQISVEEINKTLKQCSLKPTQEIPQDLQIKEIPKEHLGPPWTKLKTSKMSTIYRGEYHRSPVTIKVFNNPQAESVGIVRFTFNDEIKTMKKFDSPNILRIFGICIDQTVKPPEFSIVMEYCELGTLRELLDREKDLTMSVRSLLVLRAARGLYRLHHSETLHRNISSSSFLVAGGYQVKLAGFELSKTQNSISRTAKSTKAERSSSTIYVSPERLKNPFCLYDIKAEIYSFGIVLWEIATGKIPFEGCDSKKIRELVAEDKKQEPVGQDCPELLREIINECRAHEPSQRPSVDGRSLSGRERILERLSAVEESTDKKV
endogenous MLKL in U937, sequence (Q8NB16 whole entry): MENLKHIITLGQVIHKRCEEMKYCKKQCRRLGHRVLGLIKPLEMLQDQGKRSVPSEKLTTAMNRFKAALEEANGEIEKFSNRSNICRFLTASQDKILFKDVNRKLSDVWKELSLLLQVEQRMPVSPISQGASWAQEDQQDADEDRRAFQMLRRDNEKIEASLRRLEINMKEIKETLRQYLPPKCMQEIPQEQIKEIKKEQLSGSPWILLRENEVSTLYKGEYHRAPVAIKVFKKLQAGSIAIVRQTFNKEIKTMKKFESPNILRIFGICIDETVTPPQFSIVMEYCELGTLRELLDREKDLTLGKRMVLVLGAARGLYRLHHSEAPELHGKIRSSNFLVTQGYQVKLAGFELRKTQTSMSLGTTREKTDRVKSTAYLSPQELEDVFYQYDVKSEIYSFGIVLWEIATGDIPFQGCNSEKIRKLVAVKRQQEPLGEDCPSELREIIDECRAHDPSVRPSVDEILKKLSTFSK
human MLKL (full length), sequence (Q8NB16 whole entry): as above

`C[C@H](Oc1cc(-c2nn(C)c3c(-c4cnn(C5CCN(C(=O)CC6CCCN(c7cccc8c7C(=O)N(C7CCC(=O)NC7=O)C8=O)C6)CC5)c4)cnc(N)c23)ccc1NS(=O)(=O)C(F)F)c1ccc(F)cc1` (stereo partly drawn) [Compound 1073, N-[4-(4-amino-7-{1-[1-(2-{1-[1,3-dioxo-2-(2-oxo-piperidin-3-2,3-yl)-dihydro-1H-isoindol-4-yl]piperidin-3-yl}acetyl)piperidin-4-yl]-1H-pyrazol-4-yl}-1-methyl-1H-pyrazolo[4,3-c]pyridin-3-yl)-2-[(1S)-1-(4-fluorophenyl)ethoxy]phenyl]-1,1-difluoromethanesulfonamide]: the DC50 at endogenous MLKL in MDF and on endogenous MLKL in U937 was under 1000 nM throughout. For the same compound, the half-maximal inhibitory concentration (IC50) in experiment [1] is under 1000 nM. The Kd at human MLKL (full length) lay in the range of 10 to 1000 nM.

With `C[C@H](Oc1cc(-c2nn(C)c3c(-c4cnn(C5CCN(C(=O)[C@H]6C[C@H](Nc7cccc8c7C(=O)N(C7CCC(=O)NC7=O)C8=O)C6)CC5)c4)cnc(N)c23)ccc1NS(=O)(=O)C(F)F)c1ccc(F)cc1` (stereo partly drawn) [Compound 1047, N-{4-[4-amino-1-methyl-7-(1-{1-[(trans)-3-{[2-(2,6-dioxopiperidin-3-yl)-1,3-dioxo-2,3-dihydro-1H-isoindol-4-yl]amino}cyclobutanecarbonyl]piperidin-4-yl}-1H-pyrazol-4-yl)-1H-pyrazolo[4,3-c]pyridin-3-yl]-2-[(1 S)-1-(4-fluorophenyl)ethoxy]phenyl}-1,1-difluoromethanesulfonamide], the DC50 at endogenous MLKL in MDF and on endogenous MLKL in U937 was under 1000 nM each time. The IC50 in experiment [1] was under 1000 nM. Moreover, on human MLKL (full length), the Kd is under 10 nM.

As for `C[C@H](Oc1cc(-c2nn(C)c3c(-c4cnn(C5CCN(CCCN6CCN(C(=O)COc7ccc8c(c7)C(=O)N(C7CCC(=O)NC7=O)C8=O)CC6)CC5)c4)cnc(N)c23)ccc1NS(=O)(=O)C(F)F)c1ccc(F)cc1` (stereo partly drawn) [Compound 1091, N-(4-{4-amino-7-[1-(1-{3-[4-(2-{[2-(2,6-dioxopiperidin-3-yl)-1,3-dioxo-2,3-dihydro-1H-isoindol-5-yl]oxy}acetyl)piperazin-1-yl]propyl}piperidin-4-yl)-1H-pyrazol-4-yl]-1-methyl-1H-pyrazolo[4,3-c]pyridin-3-yl}-2-[(1S)-1-(4-fluorophenyl)ethoxy]phenyl)-1,1-difluoromethanesulfonamide], the DC50 at endogenous MLKL in MDF and at endogenous MLKL in U937 was under 1000 nM in each case. In addition, the IC50 in experiment [1] was under 1000 nM. The Kd on human MLKL (full length) was under 10 nM.

With `C[C@H](Oc1cc(-c2nn(C)c3c(-c4cnn(C5CCN(C(=O)C6CC7(C6)CN(c6cccc8c6C(=O)N(C6CCC(=O)NC6=O)C8=O)C7)CC5)c4)cnc(N)c23)ccc1NS(=O)(=O)C(F)F)c1ccc(F)cc1` (stereo partly drawn) [Compound 1074, N-(4-{4-amino-7-[1-(1-{2-[2-(2,6-dioxopiperidin-3-yl)-1,3-dioxo-2,3-dihydro-1H-isoindol-4-yl]-2-azaspiro[3.3]heptane-6-carbonyl}piperidin-4-yl)-1H-pyrazol-4-yl]-1-methyl-1H-pyrazolo[4,3-c]pyridin-3-yl}-2-[(1S)-1-(4-fluorophenyl)ethoxy]phenyl)-1,1-difluoromethanesulfonamide], the DC50 at endogenous MLKL in MDF and on endogenous MLKL in U937 was under 1000 nM in each case. Moreover, in experiment [1], the IC50 was under 1000 nM. Besides, the Kd at human MLKL (full length) is 10 to 1000 nM.

As for `Cc1ncsc1-c1ccc(CNC(=O)[C@@H]2C[C@@H](O)CN2C(=O)[C@@H](NC(=O)CCCCCOc2ccc(-c3cnc(N)c4c(-c5ccc(NS(=O)(=O)C(F)F)c(O[C@@H](C)c6ccc(F)cc6)c5)nn(C)c34)cc2)C(C)(C)C)cc1` [Compound 1042, (2S,4R)-1-[(2S)-2-[6-(4-{4-amino-3-[4-(difluoromethanesulfonamido)-3-[(1S)-1-(4-fluorophenyl)ethoxy]phenyl]-1-methyl-1H-pyrazolo[4,3-c]pyridin-7-yl}phenoxy)hexanamido]-3,3-dimethylbutanoyl]-4-hydroxy-N-{[4-(4-methyl-1,3-thiazol-5-yl)phenyl]methyl}pyrrolidine-2-carboxamide], the DC50 on endogenous MLKL in MDF and at endogenous MLKL in U937 was under 1000 nM in each case. Besides, in experiment [1], the IC50 lay in the range of 1000 to 10000 nM. For the same compound, the Kd at human MLKL (full length) is 10 to 1000 nM.

Take `C[C@H](Oc1cc(-c2nn(C)c3c(-c4cnn(C5CCN(C(=O)[C@H]6C[C@H]6C6CCN(c7cccc8c7C(=O)N(C7CCC(=O)NC7=O)C8=O)CC6)CC5)c4)cnc(N)c23)ccc1NS(=O)(=O)C(F)F)c1ccc(F)cc1` (stereo in doubt) [Compound 1129, N-[4-(4-amino-7-{1-[1-(2-{1-[2-(2,6-dioxopiperidin-3-yl)-1,3-dioxo-2,3-dihydro-1H-isoindol-4-yl]piperidin-4-yl}-(cis)-cyclopropanecarbonyl)piperidin-4-yl]-1H-pyrazol-4-yl}-1-methyl-1H-pyrazolo[4,3-c]pyridin-3-yl)-2-[(1S)-1-(4-fluorophenyl)ethoxy]phenyl]-1,1-difluoromethane-sulfonamide]: the DC50 on endogenous MLKL in MDF and at endogenous MLKL in U937 was under 1000 nM in each case. In addition, the IC50 in experiment [1] is under 1000 nM. Further, the Kd at human MLKL (full length) is 10 to 1000 nM.

As for `C[C@H](Oc1cc(-c2nn(C)c3c(-c4cnn(C5CCN(C(=O)COc6ccc7c(c6)C(=O)N(C6CCC(=O)NC6=O)C7=O)CC5)c4)cnc(N)c23)ccc1NS(=O)(=O)C(F)F)c1ccc(F)cc1` (some centres unmarked) [Compound 1085, N-[4-(4-amino-7-{1-[1-(2-{[2-(2,6-dioxopiperidin-3-yl)-1,3-dioxo-2,3-dihydro-1H-isoindol-5-yl]oxy}acetyl)piperidin-4-yl]-1H-pyrazol-4-yl}-1-methyl-1H-pyrazolo[4,3-c]pyridin-3-yl)-2-[(1 S)-1-(4-fluorophenyl)ethoxy]phenyl]-1,1-difluoromethanesulfonamide], the DC50 is 1000 to 10000 nM at endogenous MLKL in MDF and under 1000 nM at endogenous MLKL in U937. Moreover, the IC50 in experiment [1] is under 1000 nM. Besides, the Kd on human MLKL (full length) is under 10 nM.

For the compound `C[C@H](Oc1cc(-c2nn(C)c3c(C#CC(=O)N[C@H]4C[C@H](Nc5cccc6c5C(=O)N(C5CCC(=O)NC5=O)C6=O)C4)cnc(N)c23)ccc1NS(=O)(=O)C(F)F)c1ccc(F)cc1` (stereo partly drawn) [Compound 1109, 3-{4-amino-3-[4-(difluoromethanesulfonamido)-3-[(1S)-1-(4-fluorophenyl)ethoxy]phenyl]-1-methyl-1H-pyrazolo[4,3-c]pyridin-7-yl}-N-[(trans)-3-{[2-(2,6-dioxopiperidin-3-yl)-1,3-dioxo-2,3-dihydro-1H-isoindol-4-yl]amino}cyclobutyl]prop-2-ynamide], the DC50 at endogenous MLKL in MDF and at endogenous MLKL in U937 was under 1000 nM throughout. In experiment [1], the IC50 fell in the range of 1000 to 10000 nM. The Kd on human MLKL (full length) is under 10 nM.

In the case of `C[C@H](Oc1cc(-c2nn(C)c3c(-c4cnn(C5CCN(C[C@H]6C[C@H](Nc7cccc8c7C(=O)N(C7CCC(=O)NC7=O)C8=O)C6)CC5)c4)cnc(N)c23)ccc1NS(=O)(=O)C(F)F)c1ccc(F)cc1` (stereo partly drawn) [Compound 1108, N-(4-{4-amino-1-methyl-7-[1-(1-{[(trans)-3-{[2-(2,6-dioxopiperidin-3-yl)-1,3-dioxo-2,3-dihydro-1H-isoindol-4-yl]amino}cyclobutyl]methyl}piperidin-4-yl)-1H-pyrazol-4-yl]-1H-pyrazolo[4,3-c]pyridin-3-yl}-2-[(1S)-1-(4-fluorophenyl)ethoxy]phenyl)-1,1-difluoromethane-sulfonamide], the figures for the DC50 at endogenous MLKL in MDF and on endogenous MLKL in U937 were under 1000 nM and 1000 to 10000 nM, respectively. Also, the IC50 in experiment [1] was under 1000 nM. Besides, the Kd on human MLKL (full length) was under 10 nM.

On to `C[C@H](Oc1cc(-c2nn(C)c3c(-c4cnn(C5CCN(C(=O)CC(=O)N6CCN(c7cccc8c7C(=O)N(C7CCC(=O)NC7=O)C8=O)CC6)CC5)c4)cnc(N)c23)ccc1NS(=O)(=O)C(F)F)c1ccc(F)cc1` (stereo partly drawn) [Compound 1098, N-[4-(4-amino-7-{1-[1-(3-{4-[2-(2,6-dioxopiperidin-3-yl)-1,3-dioxo-2,3-dihydro-1H-isoindol-4-yl]piperazin-1-yl}-3-oxopropanoyl)piperidin-4-yl]-1H-pyrazol-4-yl}-1-methyl-1H-pyrazolo[4,3-c]pyridin-3-yl)-2-[(1S)-1-(4-fluorophenyl)ethoxy]phenyl]-1,1-difluoromethanesulfonamide], for which the DC50 at endogenous MLKL in MDF and at endogenous MLKL in U937 was under 1000 nM throughout. Besides, the IC50 in experiment [1] was 1000 to 10000 nM. In addition, the Kd at human MLKL (full length) was under 10 nM.

With `C[C@H](Oc1cc(-c2nn(C)c3c(-c4cnn(C5CCN(CCC6CCN(c7cccc8c7C(=O)N(C7CCC(=O)NC7=O)C8=O)CC6)CC5)c4)cnc(N)c23)ccc1NS(=O)(=O)C(F)F)c1ccc(F)cc1` (stereo partly drawn) [Compound 1076, N-[4-(4-amino-7-{1-[1-(2-{1-[2-(2,6-dioxopiperidin-3-yl)-1,3-dioxo-2,3-dihydro-1H-isoindol-4-yl]piperidin-4-yl}ethyl)piperidin-4-yl]-1H-pyrazol-4-yl}-1-methyl-1H-pyrazolo[4,3-c]pyridin-3-yl)-2-[(1S)-1-(4-fluorophenyl)ethoxy]phenyl]-1,1-difluoromethane-sulfonamide], the DC50 at endogenous MLKL in MDF is 1000 to 10000 nM; on endogenous MLKL in U937, under 1000 nM. Besides, the IC50 in experiment [1] was under 1000 nM. Further, the Kd on human MLKL (full length) is under 10 nM.
